# Laboratory results: patent publication US20250123280A1, “LABEL-FREE DETECTION OF PROTEASE ACTIVITY” (OREGON HEALTH & SCIENCE UNIVERSITY, priority 2021, published 2025)
# Values joined by “and” are separate entries in the source; they are usually repeats but may differ in a detail not shown here. Equal entries are not always repeated. Peptide text beside a SMILES is read from it. * marks the point of attachment. Fmoc = O=C(OCC1c2ccccc2-c2ccccc21)*
# What was measured:
# [1] = Solubility in aqueous solutions; assay type: physicochemical
# legumain [2] = target: T1, legumain (Mus musculus, UniProt O89017); assay: Legumain assay with peptide 1 and Thioflavin T in buffer; assay type: biochemical
# T1 construct: purchased Novus Biologicals
# T1 sequence (O89017 18-325 limits assumed): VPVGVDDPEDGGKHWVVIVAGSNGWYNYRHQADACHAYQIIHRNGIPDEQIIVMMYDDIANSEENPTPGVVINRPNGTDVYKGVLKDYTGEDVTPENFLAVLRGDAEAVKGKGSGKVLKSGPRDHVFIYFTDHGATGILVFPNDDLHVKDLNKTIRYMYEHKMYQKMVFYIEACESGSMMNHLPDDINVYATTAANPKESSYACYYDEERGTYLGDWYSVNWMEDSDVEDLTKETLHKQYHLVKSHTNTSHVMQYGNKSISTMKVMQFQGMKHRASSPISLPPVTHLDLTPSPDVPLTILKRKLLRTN
# Method: Legumain activation. To activate legumain, 5 μL of prolegumain solution (0.5 mg/mL in Tris buffer containing 10% glycerol) was mixed with 20 μL of activation buffer (50 mM Sodium Acetate, 100 mM NaCl, pH 4.0) and incubated at 37° C. for 2 h. It was then diluted in 225 μL of legumain assay buffer (50 mM MES, 250 mM NaCl, pH 5) to give a final legumain concentration of 10 μg/mL and immediately used in the assay.
# Legumain assay. In a typical assay, peptide 1 was first dissolved in ultrapure water containing 25% DMSO at a peptide concentration of 10 mg/mL. It was then diluted in phosphate-buffered saline (PBS, pH 7.4, 10 mM) to give a peptide concentration of 2 mg/mL. Next, 50 μL of the peptide solution was mixed with 50 μL of MES buffer (50 mM MES, 250 mM NaCl, pH 5) containing activated legumain at different concentrations (0-2000 ng/mL) in a 96 well plate and the plate was incubated at 37° C. for 2 h. Note that the final peptide concentration was 1 mg/mL and final legumain concentrations were between 0 and 1000 ng/mL. Finally, 10 μL of ThT solution (1 mM, in ultrapure water) was added to each well, and ThT fluorescence was measured using a Spark 20M microplate reader (Tecan) after 15-30 min incubation at room temperature.
# In the peptide concentration experiment, appropriate amounts of peptide 1 stock solution (10 mg/mL) were diluted in PBS and mixed with the MES buffer containing legumain, as described above, to give the final peptide concentrations between 0.05 and 1 mg/mL in the assay. In kinetic studies, ThT solution was mixed with the peptide immediately before the addition of activated legumain, and the plate was incubated in a Spark 20M microplate reader (Tecan) at 37° C. for 3 hours, and ThT fluorescence was recorded every 4 minutes. For the inhibitor experiment, the legumain inhibitor, RR-11a, was first dissolved in DMSO (1 mM), and appropriate amounts of inhibitor were incubated with legumain for about 1.0 hour at room temperature in 96 well plates. Finally, the legumain solutions incubated with different amounts of inhibitor were mixed with the peptide 1 solution, and the assay was performed as described above. For the experiments in plasma, 10 μL or 20 μL of PBS in the wells were replaced with human plasma to achieve final plasma concentrations of 10% and 20%, respectively.
# legumain [3] = target: T1, legumain; assay: LC-MS analysis of hydrolysis of peptide 1 by legumain; assay type: biochemical; details: peptide about 0.5 mg/mL, legumain about 1000 ng/mL, 37° C., about 2 hours
# Method: Fluorescence spectroscopy. For fluorescence measurements, peptide 2 was dissolved in DMSO to give a peptide concentration of 10 mg/mL, and it was 5× diluted in DMSO or the assay buffer and fluorescence spectra of the Fmoc groups were recorded using an FP-8500 spectrofluorometer (JASCO, Inc). Liquid chromatography mass spectrometry (LC-MS) measurements. LC-MS measurements were carried using an Acquity UPLC System (Waters) equipped with a SQ Detector 2 (Waters) and a C18 column (Waters). For LC-MS measurement, peptide 1 was first dissolved in ultrapure water containing 25% DMSO and diluted in PBS and MES mixture with or without legumain as described above. Final peptide concentration was about 0.5 mg/mL and legumain concentrations were about 0 ng/mL and about 1000 ng/mL. Samples were incubated at 37° C. for about 2 hours, diluted in HPLC grade water and acetonitrile mixture (1:1) containing 1% formic acid, and loaded to the column.
# [4] = CD time-course of structures formed by peptide 1 with legumain; assay type: physicochemical; details: after two weeks with legumain, 37° C.
# Method: A time-course study of the legumain assay was also run. Peptide 1 was dissolved at 0.333 mg/mL in low far-UV absorbance CD buffer, pH 5.5-6. Legumain was activated for abut 2 hours at 37° C. in far-UV absorbance CD buffer, pH 4. Spectra were acquired from 260-190 nm with 1.0 nm band-width, 20 nm/min scan speed, and 2 sec integration time. A 5 minute acquisition cycle was automatically run 26 times, followed by manual acquisitions at 28 hours, 53 hours, 78 hours, and 14 days. The temperature was maintained at 37° C. throughout. Legumain (333 ng/mL) was mixed with peptide 1 just prior to acquisition of the second spectrum (the 0 min time point). All spectra were subsequently background subtracted and then smoothed using a Savitsky-Golay filter. Data are presented in units of molar circular dichroism, Δε(M^−1 cm^−1).
compound,measurement,setting,value
C[C@H](NC(=O)[C@H](C)NC(=O)[C@H](CCC(=O)O)NC(=O)[C@H](Cc1ccccc1)NC(=O)[C@H](CCCCN)NC(=O)[C@H](Cc1ccccc1)NC(=O)OCC1c2ccccc2-c2ccccc21)C(=O)N[C@@H](CC(N)=O)C(=O)NCC(=O)N[C@@H](CCC(=O)O)C(=O)N[C@@H](CCC(=O)O)C(=O)NCC(=O)N[C@@H](CO)C(=O)NCC(=O)N[C@@H](CCC(=O)O)C(=O)N[C@@H](CCC(=O)O)C(=O)O [peptide 1] (Fmoc-FKFEAANGEEGSGEE-OH; C-terminus assumed),solubility in aqueous solutions,[1],good solubility
same,fluorescence intensity at 24 hours compared with the intensity at two hours,legumain [2]; 1000 ng/mL legumain,about 2.5
same,enhancement in the ThT emission intensity,"legumain [2]; 1000 ng/mL legumain, about two hours, peptide 1 1 mg/mL, ThT 90 μM",about 32 fold
same,enhancement in ThT emission,"legumain [2]; 1 mg/mL peptide concentration, legumain 500 ng/mL",28 fold
same,fluorescence enhancement,"legumain [2]; legumain 10.0 ng/mL, about two hours, ThT 90 μM",about 1.3 fold
same,fluorescence enhancement,"legumain [2]; legumain 25.0 ng/mL, about two hours, ThT 90 μM",about 3 fold
same,limit of detection (LOD),"legumain [2]; legumain, buffer",about 12 ng/mL and 0.21 nM
same,limit of quantification (LOQ),"legumain [2]; legumain, buffer",about 25 ng/mL and 0.45 nM
same,enhancement in the ThT fluorescence in the absence of legumain,"legumain [2]; no legumain, up to the highest peptide concentration (1.0 mg/mL)",no significant enhancement
same,enhancement in the ThT emission,"legumain [2]; peptide 1 1.0 mg/mL, ThT 90 μM, no legumain",1.4 fold
same,ThT emission intensity increase,"legumain [2]; peptide concentration below 0.25 mg/mL, legumain 500 ng/mL",1.3-1.4 fold
same,peptide cleaved by legumain (LC-MS),legumain [3],~30%
same,stability of the formed structures (CD spectrum),[4],long-term stability
